# From ChEMBL document CHEMBL3885861, “Open TG-GATES”
# Species on record: Rattus norvegicus
# Experiment: Open TG-GATES - Regimen: Single
# Type: toxicity, organism-based, Sprague-Dawley
# Set-up: regimen Single, gender Male, age 6 weeks
# Settings: in vivo, po, 45 mg/kg, route gavage, dose level Low; for APTT / Bas / Eos / Fbg / Hb / Ht / Lym / MCH / MCHC / MCV / Mono / Neu / PT / Plat / RBC / Ret / WBC: tissue Blood; for KIDNEY_L / KIDNEY_R / KIDNEY_TOTAL: tissue Kidney; for LIVER: tissue Liver; for ALP / ALT / AST / BUN / CRE / DBIL / GLC / K / LDH / Na / PL / RALB / TBIL / TC / TG / TP / gamma-GTP: tissue Plasma
smiles,measurement,setting,value
CC(CCc1ccccc1)NCC(O)c1ccc(O)c(C(N)=O)c1 (stereo unspecified) [LABETALOL],TERMINAL_BW,3 h,214.4 g
same,APTT,3 h,16 s
same,Bas,3 h,0%
same,Eos,3 h,1%
same,Fbg,3 h,265.8 mg/dL
same,Hb,3 h,13 g/dL
same,Ht,3 h,38.2%
same,Lym,3 h,78.2%
same,MCH,3 h,22.2 pg
same,MCHC,3 h,33.9%
same,MCV,3 h,65.5 fL
same,Mono,3 h,3.2%
same,Neu,3 h,16.6%
same,PT,3 h,13.1 s
same,Plat,3 h,103.6 x10_4/uL
same,RBC,3 h,584 x10_4/ul
same,Ret,3 h,8.6%
same,WBC,3 h,63.4 x10_2/uL
same,KIDNEY_L,3 h,0.9 g
same,KIDNEY_R,3 h,0.9 g
same,KIDNEY_TOTAL,3 h,1.8 g
same,LIVER,3 h,9.7 g
same,ALP,3 h,1420.4 IU/L
same,ALT,3 h,42.2 IU/L
same,AST,3 h,70.8 IU/L
same,BUN,3 h,11.6 mg/dL
same,CRE,3 h,0.2 mg/dL
same,DBIL,3 h,0.014 mg/dL
same,GLC,3 h,190.2 mg/dL
same,K,3 h,3.8 meq/L
same,LDH,3 h,56.2 IU/L
same,Na,3 h,143 meq/L
same,PL,3 h,147.4 mg/dL
same,RALB,3 h,2.6 g/dL
same,TBIL,3 h,0.044 mg/dL
same,TC,3 h,83.6 mg/dL
same,TG,3 h,60.4 mg/dL
same,TP,3 h,5.4 g/dL
same,gamma-GTP,3 h,1 IU/L
same,TERMINAL_BW,6 h,214.9 g
same,APTT,6 h,16.1 s
same,Bas,6 h,0%
same,Eos,6 h,1%
same,Fbg,6 h,287.6 mg/dL
same,Hb,6 h,12.8 g/dL
same,Ht,6 h,37.8%
same,Lym,6 h,75.6%
same,MCH,6 h,21.4 pg
same,MCHC,6 h,33.8%
same,MCV,6 h,63.3 fL
same,Mono,6 h,2.4%
same,Neu,6 h,20.6%
same,PT,6 h,13.1 s
same,Plat,6 h,116.3 x10_4/uL
same,RBC,6 h,596.4 x10_4/ul
same,Ret,6 h,8.2%
same,WBC,6 h,76.9 x10_2/uL
same,KIDNEY_L,6 h,0.9 g
same,KIDNEY_R,6 h,0.9 g
same,KIDNEY_TOTAL,6 h,1.9 g
same,LIVER,6 h,8.9 g
same,ALP,6 h,1402 IU/L
same,ALT,6 h,40.2 IU/L
same,AST,6 h,73 IU/L
same,BUN,6 h,9.6 mg/dL
same,CRE,6 h,0.2 mg/dL
same,DBIL,6 h,0.01 mg/dL
same,GLC,6 h,180.4 mg/dL
same,K,6 h,3.9 meq/L
same,LDH,6 h,46 IU/L
same,Na,6 h,142.8 meq/L
same,PL,6 h,135.8 mg/dL
same,RALB,6 h,2.5 g/dL
same,TBIL,6 h,0.038 mg/dL
same,TC,6 h,82.4 mg/dL
same,TG,6 h,50.6 mg/dL
same,TP,6 h,5.4 g/dL
same,gamma-GTP,6 h,1.2 IU/L
same,TERMINAL_BW,9 h,212.6 g
same,APTT,9 h,16.8 s
same,Bas,9 h,0%
same,Eos,9 h,1%
same,Fbg,9 h,293.4 mg/dL
same,Hb,9 h,12.9 g/dL
same,Ht,9 h,38.5%
same,Lym,9 h,79.4%
same,MCH,9 h,21.3 pg
same,MCHC,9 h,33.7%
same,MCV,9 h,63.3 fL
same,Mono,9 h,1.8%
same,Neu,9 h,17.2%
same,PT,9 h,13.3 s
same,Plat,9 h,106.4 x10_4/uL
same,RBC,9 h,608.2 x10_4/ul
same,Ret,9 h,8.2%
same,WBC,9 h,70.4 x10_2/uL
same,KIDNEY_L,9 h,0.9 g
same,KIDNEY_R,9 h,0.9 g
same,KIDNEY_TOTAL,9 h,1.9 g
same,LIVER,9 h,8.1 g
same,ALP,9 h,1452.8 IU/L
same,ALT,9 h,43.6 IU/L
same,AST,9 h,69 IU/L
same,BUN,9 h,9.6 mg/dL
same,CRE,9 h,0.2 mg/dL
same,DBIL,9 h,0.008 mg/dL
same,GLC,9 h,184.2 mg/dL
same,K,9 h,3.9 meq/L
same,LDH,9 h,46.2 IU/L
same,Na,9 h,143.6 meq/L
same,PL,9 h,136 mg/dL
same,RALB,9 h,2.5 g/dL
same,TBIL,9 h,0.038 mg/dL
same,TC,9 h,81.8 mg/dL
same,TG,9 h,39.6 mg/dL
same,TP,9 h,5.3 g/dL
same,gamma-GTP,9 h,1 IU/L
same,TERMINAL_BW,24 h,226.1 g
same,APTT,24 h,16.2 s
same,Bas,24 h,0%
same,Eos,24 h,1.2%
same,Fbg,24 h,284.4 mg/dL
same,Hb,24 h,13.5 g/dL
same,Ht,24 h,39.1%
same,Lym,24 h,78%
same,MCH,24 h,21.9 pg
same,MCHC,24 h,34.6%
same,MCV,24 h,63.3 fL
same,Mono,24 h,2.8%
same,Neu,24 h,17.6%
same,PT,24 h,12.8 s
same,Plat,24 h,112.9 x10_4/uL
same,RBC,24 h,618.6 x10_4/ul
same,Ret,24 h,8.2%
same,WBC,24 h,80.8 x10_2/uL
same,KIDNEY_L,24 h,1 g
same,KIDNEY_R,24 h,1 g
same,KIDNEY_TOTAL,24 h,1.9 g
same,LIVER,24 h,10.4 g
same,ALP,24 h,1933.8 IU/L
same,ALT,24 h,53.2 IU/L
same,AST,24 h,82.2 IU/L
same,BUN,24 h,14.8 mg/dL
same,CRE,24 h,0.2 mg/dL
same,DBIL,24 h,0.018 mg/dL
same,GLC,24 h,181.8 mg/dL
same,K,24 h,4.1 meq/L
same,LDH,24 h,87.4 IU/L
same,Na,24 h,142 meq/L
same,PL,24 h,150.8 mg/dL
same,RALB,24 h,2.7 g/dL
same,TBIL,24 h,0.032 mg/dL
same,TC,24 h,81.8 mg/dL
same,TG,24 h,119 mg/dL
same,TP,24 h,5.7 g/dL
same,gamma-GTP,24 h,1.2 IU/L
